According to patent US9958434B2, “Fluorescent probe sensing tyrosine kinase and use thereof” (POSTECH ACADEMY-INDUSTRY FOUNDATION, priority 2013, dated 2018):

Experiments:
[1] = system: mouse melanoma skin cancer B16F10 tissues; experiment: In vivo two-photon microscopy and OCT imaging of mouse ear transplanted with skin cancer tissues
Method: More particularly, a mouse's ear was transplanted with skin cancer tissues (mouse melanoma skin cancer B16F10), and treated with compound 1 to determine that fluorescence was selectively observed in a site of cancer in living mice under a two-photon microscope. 6-month-old, SPF/VAF immunodeficent female nude mice (BALB/c-nude mice, OrientBio corp.) were used as the mice, and the B16F10 cancer cells were prepared in the same manner as in Example 12. Then, the concentrated cancer cells from which a solution was removed using a centrifuge were injected into one ear of each mouse using a syringe. After 4 day, formation of cancer tissues in the mouse's ear was checked, and 10 μL of compound 1 (10 mM) was injected into the one ear of each mouse. […] After 30 minutes, the mice were anesthetized by […], and images were taken of cancer tissues and normal tissues using a two-photon fluorescence microscope. […]
In FIG. 13, each image has a size of 300 μm×300 μm, and a scale bar represents 50 μm. A right bar represents a fluorescence signal intensity. […] The panels a and d show the two-photon fluorescence imaging results from the mice into which nothing is injected, the panels b and e show the two-photon fluorescence imaging results from the mice into which 10 μL of a PBS buffer including no compound 1 is injected, and the panels c and f show the […]

[2] = target: T1, ABL1 (T315I) (Homo sapiens, UniProt P00519, T315I); experiment: KINOMEscan competition binding (DiscoveRX); conditions: lower value means stronger binding
T1 construct: purchased DiscoveRX (contract KINOMEscan service)
Excerpt: (§1) More particularly, to determine selectivities to various kinds of kinase enzymes, the samples were entrusted to DiscoveRX (U.S.A), which was able to determine the binding affinities to a total of 96 kinase enzymes, to perform KINOMEscan experiments. This company treated all kinds of information on the entrusted samples as confidential, and analyzed the sample with charge. Compound 1 was provided to the company, and the company performed the KINOMEscan experiments, and provided the results (DiscoveRX corp.)
(§2) KINOMEscan is an experiment in which compound 1 and a compound (a material strongly binding to kinase enzymes) competing for compound 1 are treated with a kinase enzyme at the same time to determine how many the competing compound binds to active sites of the kinase enzymes, compared with compound 1. In this experiment, an experimental value is expressed as a percentile value. In this case, a lower percentile value means that compound 1 more strongly bind to the kinase enzymes.

[3] = target: T2, BRAF (Homo sapiens, UniProt P15056); experiment: KINOMEscan competition binding (DiscoveRX); conditions: lower value means stronger binding
T2 construct: purchased DiscoveRX (contract KINOMEscan service)
Excerpt: as §1, §2

[4] = system: 96 kinase enzymes; experiment: KINOMEscan competition binding (DiscoveRX)
Excerpt: as §1, §2

[5] = target: T3, TYK2 (Homo sapiens, UniProt P29597); experiment: KINOMEscan competition binding (DiscoveRX); conditions: lower value means stronger binding
T3 construct: purchased DiscoveRX (contract KINOMEscan service)
Excerpt: as §1, §2

[6] = target: T4, PDGFRa (Homo sapiens, UniProt P16234); experiment: KINOMEscan competition binding (DiscoveRX); conditions: lower value means stronger binding
T4 construct: purchased Carna Biosciences
Excerpt: as §1, §2

[7] = target: T5, RSK2 (Homo sapiens, UniProt P51812); experiment: KINOMEscan competition binding (DiscoveRX); conditions: lower value means stronger binding
T5 construct: purchased DiscoveRX (contract KINOMEscan service)
Excerpt: as §1, §2

T2 sequence (P15056 whole entry): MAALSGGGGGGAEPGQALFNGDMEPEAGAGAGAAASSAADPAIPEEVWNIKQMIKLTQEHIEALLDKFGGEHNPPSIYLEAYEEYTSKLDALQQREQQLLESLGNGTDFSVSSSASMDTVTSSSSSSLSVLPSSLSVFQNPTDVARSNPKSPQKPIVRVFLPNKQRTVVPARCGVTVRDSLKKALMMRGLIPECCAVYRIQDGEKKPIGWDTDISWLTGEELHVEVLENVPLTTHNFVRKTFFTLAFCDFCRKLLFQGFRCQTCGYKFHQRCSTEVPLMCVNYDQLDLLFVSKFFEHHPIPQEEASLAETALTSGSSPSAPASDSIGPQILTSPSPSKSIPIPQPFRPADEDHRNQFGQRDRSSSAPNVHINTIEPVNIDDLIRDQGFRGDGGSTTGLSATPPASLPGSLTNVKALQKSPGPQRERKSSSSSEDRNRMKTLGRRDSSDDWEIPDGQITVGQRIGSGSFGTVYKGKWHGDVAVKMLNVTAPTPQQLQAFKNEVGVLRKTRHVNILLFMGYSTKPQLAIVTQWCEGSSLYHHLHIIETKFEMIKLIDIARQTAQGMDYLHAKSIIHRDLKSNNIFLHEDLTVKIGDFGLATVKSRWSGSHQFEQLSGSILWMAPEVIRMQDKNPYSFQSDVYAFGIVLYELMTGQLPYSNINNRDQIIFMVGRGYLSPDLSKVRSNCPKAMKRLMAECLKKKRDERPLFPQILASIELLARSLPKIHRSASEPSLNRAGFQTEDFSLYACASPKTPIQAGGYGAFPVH
T5 sequence (P51812 whole entry): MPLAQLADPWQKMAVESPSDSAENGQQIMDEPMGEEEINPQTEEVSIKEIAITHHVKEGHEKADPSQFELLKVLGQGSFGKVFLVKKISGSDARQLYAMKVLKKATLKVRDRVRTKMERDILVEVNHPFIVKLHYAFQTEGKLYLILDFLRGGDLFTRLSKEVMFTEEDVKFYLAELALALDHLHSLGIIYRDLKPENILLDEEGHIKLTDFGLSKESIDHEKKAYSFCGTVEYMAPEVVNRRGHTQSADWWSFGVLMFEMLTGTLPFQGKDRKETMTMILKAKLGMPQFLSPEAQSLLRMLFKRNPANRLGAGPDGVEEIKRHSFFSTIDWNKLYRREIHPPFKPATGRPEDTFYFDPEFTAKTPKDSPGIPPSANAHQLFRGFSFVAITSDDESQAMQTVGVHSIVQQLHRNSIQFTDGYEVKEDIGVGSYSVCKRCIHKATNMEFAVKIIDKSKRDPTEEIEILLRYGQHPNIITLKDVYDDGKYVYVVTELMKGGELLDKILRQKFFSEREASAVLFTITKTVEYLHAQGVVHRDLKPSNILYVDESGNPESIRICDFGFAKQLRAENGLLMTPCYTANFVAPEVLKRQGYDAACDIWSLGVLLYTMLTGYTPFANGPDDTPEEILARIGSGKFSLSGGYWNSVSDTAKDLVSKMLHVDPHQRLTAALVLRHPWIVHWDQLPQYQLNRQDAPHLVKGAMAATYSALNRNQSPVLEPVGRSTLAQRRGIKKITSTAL
T4 sequence (P16234 24-1089): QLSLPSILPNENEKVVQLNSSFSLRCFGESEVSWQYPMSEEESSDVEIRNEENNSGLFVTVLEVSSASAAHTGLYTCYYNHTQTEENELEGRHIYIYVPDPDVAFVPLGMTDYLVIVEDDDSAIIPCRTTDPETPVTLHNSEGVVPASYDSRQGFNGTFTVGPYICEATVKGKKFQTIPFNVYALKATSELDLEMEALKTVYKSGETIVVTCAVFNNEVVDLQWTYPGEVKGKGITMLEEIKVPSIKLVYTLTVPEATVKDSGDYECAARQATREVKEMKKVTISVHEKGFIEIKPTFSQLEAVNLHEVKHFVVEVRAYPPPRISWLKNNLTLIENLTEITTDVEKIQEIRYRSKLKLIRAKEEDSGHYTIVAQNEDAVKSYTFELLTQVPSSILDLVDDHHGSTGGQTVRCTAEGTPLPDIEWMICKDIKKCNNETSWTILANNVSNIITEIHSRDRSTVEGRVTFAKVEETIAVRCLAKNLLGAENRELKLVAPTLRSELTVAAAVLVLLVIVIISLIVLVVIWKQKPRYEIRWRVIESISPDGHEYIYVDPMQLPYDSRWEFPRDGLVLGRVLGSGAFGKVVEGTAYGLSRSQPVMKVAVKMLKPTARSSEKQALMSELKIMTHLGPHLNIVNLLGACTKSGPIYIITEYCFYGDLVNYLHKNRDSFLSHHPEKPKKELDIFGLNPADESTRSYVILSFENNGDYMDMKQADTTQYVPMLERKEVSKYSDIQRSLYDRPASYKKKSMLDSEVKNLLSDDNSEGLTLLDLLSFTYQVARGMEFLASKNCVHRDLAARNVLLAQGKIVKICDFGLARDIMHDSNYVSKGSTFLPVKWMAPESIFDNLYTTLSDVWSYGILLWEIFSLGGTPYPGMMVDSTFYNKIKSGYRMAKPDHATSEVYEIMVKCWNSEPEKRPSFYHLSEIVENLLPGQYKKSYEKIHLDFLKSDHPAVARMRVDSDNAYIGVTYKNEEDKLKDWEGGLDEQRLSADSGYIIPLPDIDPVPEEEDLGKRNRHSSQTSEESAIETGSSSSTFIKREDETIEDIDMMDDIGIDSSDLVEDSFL
T3 sequence (P29597 whole entry): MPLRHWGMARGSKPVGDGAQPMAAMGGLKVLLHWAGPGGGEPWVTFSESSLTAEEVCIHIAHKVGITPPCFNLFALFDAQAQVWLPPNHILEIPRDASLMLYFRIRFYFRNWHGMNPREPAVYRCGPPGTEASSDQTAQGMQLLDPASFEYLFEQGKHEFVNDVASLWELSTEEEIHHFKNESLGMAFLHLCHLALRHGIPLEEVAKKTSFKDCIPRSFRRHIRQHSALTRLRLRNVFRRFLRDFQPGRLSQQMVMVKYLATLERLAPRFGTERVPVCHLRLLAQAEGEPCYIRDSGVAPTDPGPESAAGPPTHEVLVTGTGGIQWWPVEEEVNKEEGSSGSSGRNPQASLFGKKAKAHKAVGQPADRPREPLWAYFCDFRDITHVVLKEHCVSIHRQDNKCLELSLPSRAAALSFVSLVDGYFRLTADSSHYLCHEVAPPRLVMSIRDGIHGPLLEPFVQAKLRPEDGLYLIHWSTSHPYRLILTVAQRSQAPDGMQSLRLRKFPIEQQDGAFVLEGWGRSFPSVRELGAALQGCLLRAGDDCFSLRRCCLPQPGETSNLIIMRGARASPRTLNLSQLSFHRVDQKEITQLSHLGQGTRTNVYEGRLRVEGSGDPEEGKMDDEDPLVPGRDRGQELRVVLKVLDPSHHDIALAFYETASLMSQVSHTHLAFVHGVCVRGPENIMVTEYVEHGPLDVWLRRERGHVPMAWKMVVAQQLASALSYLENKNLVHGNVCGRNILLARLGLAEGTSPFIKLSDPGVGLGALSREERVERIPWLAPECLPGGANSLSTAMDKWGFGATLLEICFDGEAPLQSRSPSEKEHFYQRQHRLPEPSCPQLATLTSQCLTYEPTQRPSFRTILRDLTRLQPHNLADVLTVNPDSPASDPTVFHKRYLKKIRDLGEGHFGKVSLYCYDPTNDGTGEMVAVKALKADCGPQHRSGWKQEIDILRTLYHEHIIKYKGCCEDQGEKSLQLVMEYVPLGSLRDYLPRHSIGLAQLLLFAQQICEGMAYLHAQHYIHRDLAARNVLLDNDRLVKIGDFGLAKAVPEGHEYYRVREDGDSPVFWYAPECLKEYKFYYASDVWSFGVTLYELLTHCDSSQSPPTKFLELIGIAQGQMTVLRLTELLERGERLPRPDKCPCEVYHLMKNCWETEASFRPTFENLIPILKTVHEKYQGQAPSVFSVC

## CN(C)c1ccc2cc(C=O)c(O)cc2c1 [compound 1, 6-(dimethylamino)-3-hydroxyl-2-naphthaldehyde]
[1]; nude mice, ear injection of 10 μL of compound 1 (10 mM), imaged after 30 minutes, ex 880 nm
  two-photon fluorescence in cancer tissues versus normal tissues: strong fluorescence was selectively observed in the cancer tissues
[1]; same conditions as Example 14, cancer tissues
  3D imaging (two-photon microscopy combined with OCT) fluorescence: fluorescence was strongly emitted from the wide tissues
[2]
  KINOMEscan percentile value: low percentile value
[3]
  KINOMEscan percentile value: low percentile value
[4]
  number of kinase enzymes bound, of a total of 96: at least 50
[5]
  KINOMEscan percentile value: low percentile value
[6]
  KINOMEscan percentile value: low percentile value
[7]
  KINOMEscan percentile value: low percentile value
